Source: US20210009630A1, “CYCLIC DINUCLEOTIDES AS STING AGONISTS” (Janssen Biotech, Inc., priority 2017, published 2021)
Like-named read-outs stand apart in the source and are kept apart here.

Columns and labels:
[1] = biological target: T1, human STING (E. coli produced truncated STING protein) (Homo sapiens, UniProt Q86WV6, H232R); test: STING SPR binding assay; conditions: steady state affinity, 1:1 binding model, 25° C.
T1 construct: contains residues 139-379 of Q86WV6 with an R at position 232 (H232R); HIS tag (N, cleaved yes); made in house; host or cells: E. coli
T1 sequence (Q86WV6 139-379 H232R): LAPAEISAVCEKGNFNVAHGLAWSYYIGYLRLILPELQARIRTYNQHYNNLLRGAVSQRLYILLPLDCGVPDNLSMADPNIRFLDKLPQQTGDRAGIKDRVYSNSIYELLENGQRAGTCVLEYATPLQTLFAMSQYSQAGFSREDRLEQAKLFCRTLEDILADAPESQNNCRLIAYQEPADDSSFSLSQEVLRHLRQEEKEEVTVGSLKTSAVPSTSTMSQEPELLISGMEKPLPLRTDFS
Procedure: Compounds were analyzed on an S200 biacore SPR instrument (GE Healthcare). E. coli produced truncated STING protein was immobilized on a series S streptavidin chip via biotin capture (GE Healthcare #BR100531) with. […] Steady state affinity and kinetic evaluations were carried out using 1:1 binding model (STING was treated as a dimer). Run parameters were as follows: 60 sec on, 300 sec off for the IFM compounds, cyclic-di-GMP (60 sec on/60 sec off), thiol isomer 1 (60 sec on/300 sec off) and cGAMP (60 sec on/1200 sec off) with a flow rate of 50 μL/min and data collection at 40 Hz at 25° C.

[2] = biological target: human STING (biotinylated STING protein, residues 139-379 of Q86WV6, H232R) (Homo sapiens, UniProt Q86WV6, H232R); test: STING SPA binding assay
Chain of human STING (biotinylated STING protein, residues 139-379 of Q86WV6, H232R) (Q86WV6 139-379 H232R, one chain of several): as the sequence (Q86WV6 139-379 H232R) above
Procedure: The HIS tag is cleaved after purification and prior to biotinylation.
Test compounds (80 nL) were added with an acoustic dispenser (EDC Biosystems) in 100% DMSO for a final assay concentration of 1% DMSO. Plates were centrifuged for 1 min and incubated for 60 min at room temperature. […] Plates were dark adapted for 2 h and read on a ViewLux (Perkin Elmer) for 12 min per plate.

[3] = system: human STING pathway (THP1-ISG cells); test: STING human cell reporter assay; format: cell-based; conditions: IRF-inducible SEAP reporter, 24 h, means of at least three values
Procedure: Agonism of the human STING pathway is assessed in THP1-ISG cells (Invivogen, cat #thp-isg) derived from human THP1 monocyte cell line by stable integration of an interferon regulatory factor (IRF)-inducible SEAP reporter construct. THP1-Blue ISG cells express a secreted embryonic alkaline phosphatase (SEAP) reporter gene under the control of an ISG54 minimal promoter in conjunction with five interferon (IFN)-stimulated response elements. As a result, THP1-Blue ISG cells allow the monitoring of IRF activation by determining the activity of SEAP. The levels of IRF-induced SEAP in the cell culture supernatant are readily assessed with alkaline phosphatase detection medium, a SEAP detection reagent. These cells are resistant to Zeocin. 2′3′cGAMP was used as a positive control in this assay. To run the assay, 60,000 cells were dispensed in 30 μL/well of a white, opaque bottom tissue culture treated 384-well plate.
Test compounds were added in a volume of 10 μL (1% DMSO final concentration). Compounds are initially prepared in 100% DMSO, spotted on an compound dilution plate and then diluted in media prior to transfer. The assay was incubated for 24 h at 37° C., 5% CO2 then plates were centrifuged at 1200 rpm (120×g) for 5 min. After final incubation, 90 μL of alkaline phosphatase detection medium-substrate was added to each well of a new 384-well clear plate and 10 μL of the cell supernatant was transferred from the assay plate to the new alkaline phosphatase detection medium-plate using a Biomek FX and mixed 4 times. Plates were incubated at RT for 20 min then absorbance at 655 nm was determined on the Tecan Safire2.

[4] = system: THP1-Blue ISG cells (IFN-β secretion); test: Human interferon-β induction assay; format: cell-based; conditions: total cumulative IFN-β induction over the dose range tested (0.78 to 50 uM) in THP-1 cells after a 24 hour exposure
Procedure: THP1-Blue ISG cells are used to measure the secretion of IFN-β into the culture supernatant following STING pathway activation. To run the assay, anti-IFN-β capture antibodies were coated on […] well MultiArray plates (Mesoscale Discovery). After a one hour incubation, plates were washed and 50 μL supernatant from the STING human cell reporter assay plates or IFN-β standards were mixed with 20 μL Sulfotag-conjugated detection antibody in the coated plates. Plates were incubated, shaking for 2 h, washed, and read buffer was applied. Electrochemiluminescence was measured on the SectorImager.

[5] = read-out: hSTING SPA IC50, displacement of [3H]-2′3′-cGAMP from biotin-STING, means of at least three values

Kd [1] [nM] | IC50 [2, 5] [nM] | EC50 [3] [nM] | IC50 [2] [nM] | EC50 ([3]; Homo sapiens) [nM] | Compound | human IFN-β (ranking value) [4] [pg/mL]
5990 | 73100 | 17800 | – | – | Nc1ncnc2c1ncn2[C@@H]1O[C@@H]2COP(=O)(O)O[C@H]3[C@@H](O)[C@H](n4cnc5c(N)ncnc54)O[C@@H]3COP(=O)(O)O[C@H]2[C@H]1O [3′,3′cAMP, reference compound] | 539
3970 | 8620 | 8700 | – | – | Nc1nc2c(ncn2[C@@H]2O[C@@H]3COP(=O)(O)O[C@H]4[C@@H](O)[C@H](n5cnc6c(=O)[nH]c(N)nc65)O[C@@H]4COP(=O)(O)O[C@H]3[C@H]2O)c(=O)[nH]1 [3′,3′cGMP, reference compound] | –
1.2 | – | – | 11 | 990 | CO[C@H]1[C@H]2OP(=O)(O)OC[C@H]3O[C@@H](n4cnc5c(N)ncnc54)[C@H](F)[C@@H]3NS(=O)(=O)OC[C@H]1O[C@H]2n1cnc2c(=O)[nH]c(N)nc21 [Compound 6] | 6762
280 | – | – | 2790 | 110 | CO[C@H]1[C@H]2OS(=O)(=O)NC[C@]34CO[C@H](C3OP(=O)(O)OC[C@H]1O[C@H]2n1cnc2c(=O)[nH]c(N)nc21)[C@H](n1cnc2c(N)ncnc21)O4 (stereo partly drawn) [Compound 9] | 8104
6.5 | – | – | 15 | 30 | Nc1nc2c(ncn2[C@@H]2O[C@@H]3COP(=O)(O)O[C@H]4[C@@H](F)[C@H](n5cnc6c(N)ncnc65)O[C@@H]4CNS(=O)(=O)O[C@@H]2[C@@H]3O)c(=O)[nH]1 [Compound 11] | 14896
– | – | – | 220 | 140 | CO[C@H]1[C@H]2OS(=O)(=O)NC[C@H]3O[C@@H](n4cnc5c(N)ncnc54)C[C@@H]3OP(=O)(O)OC[C@H]1O[C@H]2n1cnc2c(=O)[nH]c(N)nc21 [Compound 12] | –
– | – | – | 360 | 43 | Nc1nc2c(nnn2[C@@H]2O[C@@H]3COP(=O)(O)O[C@H]4[C@@H](F)[C@H](n5cnc6c(N)ncnc65)O[C@@H]4CNS(=O)(=O)O[C@@H]2C3)c(=O)[nH]1 [Compound 15] | 15611
5140 | – | – | 21600 | 250 | Nc1ncnc2c1ncn2C1O[C@@H]2CNS(=O)(=O)O[C@H]3C(n4cnc5c(N)ncnc54)O[C@H](COP(=O)(O)O[C@H]2[C@H]1F)[C@H]3O (stereo partly drawn) [Compound 17] | 17298
– | – | – | 1140 | 110 | Nc1nc2c(ncn2C2O[C@@H]3COP(=O)(O)O[C@H]4C[C@H](n5cnc6c(N)ncnc65)OC4CNS(=O)(=O)O[C@@H]2[C@@H]3O)c(=O)[nH]1 (stereo partly drawn) [Compound 18] | 15249
8.2 | – | – | 47 | ~220 | CO[C@H]1[C@H]2OP(=O)(O)OC[C@H]3O[C@@H](n4cnc5c(N)ncnc54)C[C@@H]3NS(=O)(=O)OC[C@H]1O[C@H]2n1cnc2c(=O)[nH]c(N)nc21 [Compound 20] | 6045
– | – | – | 92 | 26 | CO[C@H]1[C@H]2OP(=O)(O)OC[C@H]3OC(n4cnc5c(N)ncnc54)[C@H](F)[C@@H]3OS(=O)(=O)NC[C@H]1O[C@H]2n1cnc2c(=O)[nH]c(N)nc21 (stereo partly drawn) [Compound 22] | –
– | – | – | 5000 | 11 | CO[C@H]1[C@H]2OP(=O)(O)OC[C@H]3OC(n4cnc5c(N)ncnc54)C[C@@H]3OS(=O)(=O)NC[C@H]1O[C@H]2n1cnc2c(=O)[nH]c(N)nc21 (stereo partly drawn) [Compound 24] | 11534
– | – | – | 28400 | 1020 | Nc1nc2c(ncn2C2OC3CNS(=O)(=O)OC4C(COP(=O)(O)OC2C3)OC(n2cnc3c(N)ncnc32)C4F)c(=O)[nH]1 (stereo not drawn) [Compound 26] | –
– | – | – | 190 | 99 | CO[C@H]1[C@H]2OS(=O)(=O)NC[C@H]3O[C@@H](n4cnc5c(N)ncnc54)[C@@H](F)[C@@H]3O[P@](=O)(O)OC[C@H]1O[C@H]2n1cnc2c(=O)[nH]c(N)nc21 [Compound 28] | 12969
– | – | – | > 100000 | 13000 | Nc1ncnc2c1ncn2[C@@H]1O[C@@H]2CNS(=O)(=O)O[C@@H]3[C@H](O)[C@@H](COP(=O)(O)O[C@H]2[C@H]1O)O[C@H]3n1cnc2c(N)ncnc21 [Compound 30] | –
– | – | – | > 100000 | 7080 | Nc1ncnc2c1ncn2[C@@H]1O[C@@H]2COP(=O)(O)O[C@@H]3[C@H](F)[C@@H](CNS(=O)(=O)O[C@H]2[C@H]1F)O[C@H]3n1cnc2c(N)ncnc21 [Compound 35] | –
– | – | – | > 100000 | 2460 | Nc1ncnc2c1ncn2[C@@H]1O[C@@H]2COP(=O)(O)O[C@H]3C[C@H](n4cnc5c(N)ncnc54)O[C@@H]3CNS(=O)(=O)O[C@@H]1[C@@H]2F [Compound 36] | –
– | – | – | 12400 | 1350 | Nc1nc2c(nnn2[C@@H]2O[C@@H]3CNS(=O)(=O)O[C@H]4[C@@H](F)[C@H](n5cnc6c(N)ncnc65)O[C@@H]4COP(=O)(O)O[C@@H]2C3)c(=O)[nH]1 [Compound 37] | –
– | – | – | 21 | 65 | Nc1ncnc2c1ncn2[C@@H]1O[C@@H]2CNS(=O)(=O)O[C@@H]3[C@H](F)[C@@H](COP(=O)(O)O[C@H]2[C@H]1F)O[C@H]3n1cnc2c(=O)[nH]cnc21 [Compound 39] | –
– | – | – | 66 | 38 | CO[C@H]1[C@H]2OS(=O)(=O)NC[C@H]3O[C@@H](n4cnc5c(N)ncnc54)C[C@@H]3OP(=O)(O)OC[C@H]1O[C@H]2n1cnc2c(=O)[nH]cnc21 [Compound 40] | –
– | – | – | > 100000 | 22500 | Nc1ncnc2c1ncn2C1O[C@@H]2COP(=O)(O)O[C@@H]3[C@H](O)C(CNS(=O)(=O)O[C@H]2[C@H]1F)O[C@H]3n1cnc2c(N)ncnc21 (stereo partly drawn) [Compound 41] | –
– | – | – | 1300 | ~39 | Nc1nc2c(ncn2[C@@H]2O[C@@H]3CNS(=O)(=O)OC4[C@@H](F)[C@H](n5cnc6c(N)ncnc65)O[C@@H]4COP(=O)(O)O[C@@H]2[C@@H]3O)c(=O)[nH]1 (stereo partly drawn) [Compound 47] | –
– | – | – | 11 | – | COC1C2COP(=O)(O)OC3C(CNS(=O)(=O)OC1C(n1nnc4c(=O)[nH]c(N)nc41)O2)OC(n1cnc2c(N)ncnc21)C3F (stereo not drawn) [Compound 51] | –
– | – | – | 4010 | – | CO[C@H]1[C@H]2OP(=O)(O)OC[C@H]3O[C@@H](n4cnc5c(=O)[nH]cnc54)[C@H](F)[C@@H]3OS(=O)(=O)NC[C@H]1O[C@H]2n1cnc2c(=O)[nH]c(N)nc21 [Compound 53] | 11036
– | – | – | 750 | – | CO[C@H]1[C@H]2OS(=O)(=O)NC[C@H]3O[C@@H](n4cnc5c(N)ncnc54)[C@H](F)[C@@H]3OP(=O)(O)OC[C@H]1O[C@H]2n1cc(F)c2c(=O)[nH]cnc21 [Compound 54] | 18578
– | – | – | 220 | – | CO[C@H]1[C@H]2OS(=O)(=O)NC[C@H]3O[C@@H](n4cnc5c(N)ncnc54)[C@H](F)[C@@H]3OP(=O)(O)OC[C@H]1O[C@H]2n1cc(F)c2c(=O)n(C)cnc21 [Compound 55] | 25628

Compound | Kd [1] [nM] | IC50 [2, 5] [nM] | EC50 [3] [nM] | IC50 [2] [nM] | EC50 ([3]; Homo sapiens) [nM] | human IFN-β (ranking value) [4] [pg/mL]
Nc1nc2c(ncn2[C@@H]2O[C@@H]3COP(=O)(O)O[C@H]4[C@@H](O)[C@H](n5cnc6c(N)ncnc65)O[C@@H]4COP(=O)(O)O[C@@H]2[C@@H]3O)c(=O)[nH]1 [c-GAMP, (2′,3′)cyclic guanosine monophosphate-adenosine monophosphate, reference compound] | – | – | 530 | – | – | –
